Source: patent publication US20230255946A1 (Pure Tech LYT 100, Inc., priority 2020, published 2023)
Like-named read-outs stand apart in the source and are kept apart here. Marks after values point to notes of the source that are not given here.

Legend:
[1] = Single dose, double-blinded, cross-over clinical trial of 801 mg LYT-100 vs pirfenidone, safety and pharmacokinetics; conditions: for Metabolite/Parent Ratio, Cmax, Mean / Metabolite/Parent Ratio, AUC0-∞, Mean: MW-corrected; for metabolite as percent of parent in terms of AUC: single 801 mg dose; for Cmax / tmax: 5-hydroxymethyl metabolite after 801 mg of parent (LYT-110 after LYT-100, LYT-111 after pirfenidone); for Cmax / AUC0-t / AUC(inf) / Kel / t½: Mean (CV%); for tmax: Median (Range); for AUC0-t / AUC(inf) / Kel / t½: 5-hydroxymethyl metabolite after 801 mg of parent; for AUC(inf) / Kel / t½: n=23 LYT-110, n=19 LYT-111
Description: (§1) Following screening, eligible healthy volunteer subjects were admitted to a single clinical study site and were randomized to 1 of 2 treatment sequences. […] In each period, a standardized breakfast was provided to subjects prior to administration of study drug (to compare the PK profiles in the clinically relevant fed state) and plasma samples were collected over a 48-hour period after dosing for evaluation of PK. Dosing between the 2 periods was separated by a minimum of 7 days. Subjects completed the study upon completion of the 48-hour post-dose assessments following dosing period 2.
(§2) All capsules were identical in size, shape, and external color.

[2] = Repeat dose oral toxicity and toxicokinetics study in Sprague Dawley rats
Protocol: The protocol was amended to add additional TK male animals in Group 6 for Day 1 collection of TK samples at 875 mg/kg.
Blood samples were collected from 3 subsets of 3 animals/sex on Day 1 and Day 28 at predose, 0.25, 0.5, 1, 2, 4, 8 and 24 hours (hr) post-dose for groups 2 to 6 and from one subset of 3 animals/sex at 0.25 hr post-dose for the vehicle group (group 1). […] Non-compartmental analysis (NCA) of plasma concentration data was conducted using Phoenix® WinNonlin®, version 8.0.

[3] = Phase 1 Multiple Ascending Dose (MAD) study Part 1, plasma pharmacokinetics
Protocol: All Part 1 cohorts will be dosed every 12 hours with food for 5 days.
During the treatment period (Day 1 through Day 5), participants will be administered their assigned study medication BID, every 12 h ± 0.25 h (with approximately 240 mL of non-carbonated water), 30 minutes after the start of consumption of their standardised breakfast or dinner (12 h apart). A standardised lunch will be served ≥ 4 h post breakfast and ≥ 4 h prior to dinner. An evening snack will be served ≥ 3 h following evening study medication administration. No additional fluids will be allowed during the 1 h pre- and post-doses. On Day 6, subjects will replicate mealtimes as scheduled on Day 1-5.
In Part 1, blood samples (4 mL each) for PK will be collected for Cohorts 1, 2, 3, 4, and 6 at specified times (hours) at each as follows: • Day 1 and Day 5: 0 (pre-dose), 0.5, 1, 1.5, 2, 2.5, 3, 3.5, 4, 6, 8, 12 (pre-dose), 13, 14, 15, 16, 18 h • Day 2, Day 3 and Day 4: 0 (pre-morning-dose) and 12 h (pre-evening-dose) • Day 6: 12, 18, 24 and 36 h post-last dose • Day 7: 48 h (post-last dose)
Pharmacokinetics for Day 1 to 3 in Part 2 (fed state) will be compared to PK for Day 1 to Day 3 in Part 2 (fasted state). Plasma PK parameters (non-compartmental or compartmental analysis as appropriate) will include, but are not limited to: • Following single dose: Tmax, tlag, Cmax, AUC0-4, AUC0-last, t½, AUC0-inf, lambda z, %AUCext, CL/F, Vz/F, Cmax/D, AUC0-last/D, AUC0-inf/D and MRT (D is dose) • After repeated doses: Ctrough, Ctrough/D • Following repeated doses on last day: Tmax, Cmax, Cavg, tlag, t½, AUC0-4, AUC0-last, AUC0-inf, lambda z, %AUCext, CLss/F, Vzss/F, MRT, PTF, Rac(AUC), Rac(Cmax), Cmax/D, AUClast/D, AUC0-inf/D and Rac (accumulation ratio)
All cohorts (n=6 each) were dosed every 12 hours with food for 5 days at either 100, 250, 500, or 750 mg BID. […] Following processing, the samples were analyzed by HPLC on a Phenomenex Luna PFP(2), 3 µm, 50 x 2.0 mm column, and the eluates were monitored by an API4000 MS/MS detector in positive MRM mode. The data were acquired and processed by the data acquisition system Analyst® (Sciex).

[4] = cited from earlier work
[5] = human, in vivo, 48 h
Description: as §1, §2

[6] = cited from earlier work; remark: listed apart in the source
[7] = after 801 mg pirfenidone (parent LYT-101)
[8] = Day 1, Female, deuterated analyte / non-deuterated counterpart
[9] = across dose groups 100, 250, 500, 750 mg BID (FIG. 20)
[10] = across dose groups 100, 250, 500, 750, 1000 mg BID (FIG. 26)
[11] = after 801 mg LYT-100 (parent LYT-100)
[12] = Lancaster et al. 2017, frequencies as high as
[13] = patients aged at least 80 years
[14] = single-center retrospective study of 351 patients

For Cc1ccc(=O)n(-c2ccc(O)cc2)c1 [LYT-104, 4′-hydroxy-pirfenidone], the “Metabolite/Parent Ratio, Cmax, Maximum” value [1, 7] was 0.1%, the “Metabolite/Parent Ratio, Cmax, Median” value [1, 7] was 0.0% and the “Metabolite/Parent Ratio, Cmax, Minimum” value [1, 7] was 0.0%. The “Metabolite/Parent Ratio, Cmax, Mean” value [1, 7] was 0.0% and the “metabolite as percent of parent in terms of AUC” value [1] was “less than 2%”.

In the case of O=c1ccc(CO)cn1-c1ccccc1 [LYT-111, 5-hydroxymethyl-pirfenidone], the Cmax [1] is reported as 17.1 (36%) ng/mL, the tmax [1] is reported as 2.50 (1.50 - 4.00) hr and the AUC0-t [1] is reported as 75.8 (42%) hr*ng/mL. The “AUC(inf)” value [1] was 89.7 (41%) ^b hr*ng/mL, the Kel [1] was 0.367 (29%) ^b ⅟hr and the t½ [1] was 2.04 (29%) ^b hr. The “Metabolite/Parent Ratio, AUC0-∞, Maximum” value [1, 7] was 0.4%, the “Metabolite/Parent Ratio, AUC0-∞, Median” value [1, 7] was 0.2% and the “Metabolite/Parent Ratio, AUC0-∞, Minimum” value [1, 7] was 0.1%. The “Metabolite/Parent Ratio, Cmax, Maximum” value [1, 7] was 0.4%, the “Metabolite/Parent Ratio, Cmax, Median” value [1, 7] was 0.2% and the “Metabolite/Parent Ratio, Cmax, Minimum” value [1, 7] was 0.1%. The “Metabolite/Parent Ratio, AUC0-∞, Mean” value [1, 7] was 0.2%, the “Metabolite/Parent Ratio, Cmax, Mean” value [1, 7] was 0.2% and the “metabolite as percent of parent in terms of AUC” value [1] was “less than 2%”.

In the case of [2H]C([2H])([2H])c1ccc(=O)n(-c2ccc(O)cc2)c1 [LYT-103, d3-4′-hydroxy-pirfenidone], the “similarity in exposure (AUC ratio), Group 4 (LYT-100 at 750 mg/kg) / Group 5 (SD-559 at 750 mg/kg)” value [2, 8] is reported as 21.77, the “similarity in exposure (AUC ratio), Group 4 (LYT-100 at 750 mg/kg) / Group 5 (SD-559 at 750 mg/kg)” value ([2]; Day 1, Male) is reported as 34.51 and the “similarity in exposure (AUC ratio), Group 4 (LYT-100 at 750 mg/kg) / Group 5 (SD-559 at 750 mg/kg)” value ([2]; Day 28, Female) is reported as 38.04. The “average ratio to the parent (M/P) by AUC” value ([3]; Cohort 4, 750 mg BID LYT-100) was 0.0017 (0.0012-0.0022), the “average ratio to the parent (M/P) by AUC” value ([3]; Cohort 6, 1000 mg BID LYT-100) was 0.0037 (0.0030-0.0058) and the “AUC accumulation ratio (AUC96-108/AUC0-12)” value [3, 9] was ~ 1. The “AUC accumulation ratio (AUC96-108/AUC0-12)” value [3, 10] was ~ 1, the “Metabolite/Parent Ratio, AUC0-∞, Maximum” value [1, 11] was 0.2% and the “Metabolite/Parent Ratio, AUC0-∞, Median” value [1, 11] was 0.1%. For the same compound, the “Metabolite/Parent Ratio, AUC0-∞, Minimum” value [1, 11] was 0.1%, the “Metabolite/Parent Ratio, Cmax, Maximum” value [1, 11] was 0.2% and the “Metabolite/Parent Ratio, Cmax, Median” value [1, 11] was 0.1%. The “Metabolite/Parent Ratio, Cmax, Minimum” value [1, 11] was 0.1%, the “Metabolite/Parent Ratio, AUC0-∞, Mean” value [1, 11] was 0.1% and the “Metabolite/Parent Ratio, Cmax, Mean” value [1, 11] was 0.1%. For the same compound, the “quantifiability of metabolite in human plasma” value ([1]; after LYT-100 801 mg) was “not quantifiable”.

For Cc1ccc(=O)n(-c2ccccc2)c1 [pirfenidone, 5-methyl-1-phenyl-1H-pyridin-2-one], the “AUC, % Change Fed vs Fasted” value ([4]; Pirfenidone @ 800 mg) is given as -15%, the “Cmax, % Change Fed vs Fasted” value ([4]; Pirfenidone @ 800 mg) is given as -49% and the “Tmax, % Change Fed vs Fasted” value ([4]; Pirfenidone @ 800 mg) is given as “+500%”. The “increase in Tmax, fed vs fasted” value ([4]; pirfenidone) was 500%, the “tolerability of single doses” value [5] was “well tolerated” and the “diarrhea, TEAE frequency” value [6, 12] was ≤ 27.6 per 100PEY. For the same compound, the “fatigue, TEAE frequency” value [6, 12] was ≤ 52.4 per 100PEY, the “nausea, TEAE frequency” value [6, 12] was ≤ 62.1 per 100 PEY and the “adverse drug reactions leading to permanent treatment discontinuation” value ([6]; PASSPORT study, Cottin et al. 2018) was 28.7%. The “patients who had an adverse event” value ([6]; compassionate use program, Raghu & Thickett 2013) was 44%, the half-life ([6]; in humans) was “about 2.5 hours” and the “ADR leading to discontinuation” value ([6]; patients aged <65 years) was 7.5%. The “ADR leading to discontinuation” value [6, 13] was 20.9%, the “ADR leading to dose modification/interruption” value [6, 13] was 32.7% and the “ADR leading to dose modification/interruption” value ([6]; patients aged less than 65 years) was 18.0%. The “elevations of AST and ALT levels to >3× ULN” value ([6]; phase III trials) was 3.2%, the loss of appetite [6, 14] was 17% and the nausea/vomiting [6, 14] was 15%. For the same compound, the “reported AEs that were GI-related” value [6, 14] was 75%.

For [2H]C([2H])(O)c1ccc(=O)n(-c2ccccc2)c1 [LYT-110, d2-5-hydroxymethyl-pirfenidone], the “Cmax in rat relative to human” value ([2]; 750 mg/kg LYT-100, Day 1, male rat vs human 801 mg) was ~1825 fold, the “exposure (AUC) in rat relative to human” value ([2]; 750 mg/kg LYT-100, Day 1, male rats vs human 801 mg) was “about 1250 fold” and the “similarity in exposure (AUC ratio), Group 4 (LYT-100 at 750 mg/kg) / Group 5 (SD-559 at 750 mg/kg)” value [2, 8] was 2.50. For the same compound, the “similarity in exposure (AUC ratio), Group 4 (LYT-100 at 750 mg/kg) / Group 5 (SD-559 at 750 mg/kg)” value ([2]; Day 1, Male) was 2.22, the “similarity in exposure (AUC ratio), Group 4 (LYT-100 at 750 mg/kg) / Group 5 (SD-559 at 750 mg/kg)” value ([2]; Day 28, Female) was 2.59 and the “similarity in exposure (AUC ratio), Group 4 (LYT-100 at 750 mg/kg) / Group 5 (SD-559 at 750 mg/kg)” value ([2]; Day 28, Male) was 2.54. The “exposure and Cmax vs. non-deuterated corresponding metabolite (SD-788)” value ([2]; SD-560 750 mg/kg vs SD-559 750 mg/kg, all days, both genders) was “almost twice”, the “exposure in rats relative to humans” value ([2]; male rat after 28 days of daily dosing vs human) was ~1600 fold and the “average ratio to the parent (M/P) by AUC” value ([3]; Cohort 4, 750 mg BID LYT-100) was 0.0025 (0.0020-0.0029). For the same compound, the “average ratio to the parent (M/P) by AUC” value ([3]; Cohort 6, 1000 mg BID LYT-100) was 0.0028 (0.0018-0.0038), the “AUC accumulation ratio (AUC96-108/AUC0-12)” value [3, 9] was ~ 1 and the “AUC accumulation ratio (AUC96-108/AUC0-12)” value [3, 10] was ~ 1. The Cmax [1] was 20.6 (30%) ng/mL, the tmax [1] was 2.50 (1.00 - 4.00) hr and the AUC0-t [1] was 111 (32%) hr*ng/mL. For the same compound, the “AUC(inf)” value [1] was 124 (32%) ^a hr*ng/mL, the Kel [1] was 0.294 (44%) ^a ⅟hr and the t½ [1] was 2.76 (38%) ^a hr. The “Metabolite/Parent Ratio, AUC0-∞, Maximum” value [1, 11] was 0.4%, the “Metabolite/Parent Ratio, AUC0-∞, Median” value [1, 11] was 0.2% and the “Metabolite/Parent Ratio, AUC0-∞, Minimum” value [1, 11] was 0.1%. For the same compound, the “Metabolite/Parent Ratio, Cmax, Maximum” value [1, 11] was 0.4%, the “Metabolite/Parent Ratio, Cmax, Median” value [1, 11] was 0.2% and the “Metabolite/Parent Ratio, Cmax, Minimum” value [1, 11] was 0.1%. For the same compound, the “Metabolite/Parent Ratio, AUC0-∞, Mean” value [1, 11] was 0.2% and the “Metabolite/Parent Ratio, Cmax, Mean” value [1, 11] was 0.2%.
